From patent publication US6787556B1, “Benzoic acid derivatives for the treatment of diabetes mellitus” (AstraZeneca AB, priority 1999, dated 2004)

Assays:
Format in all cases: cell-based
human PPARγ = biological target: T1, human PPARγ (Homo sapiens, UniProt P37231); test: Cell transactivation assay in transiently transfected Hepa1c1c7 cells, PPRE-Lac Z reporter; conditions: concentration of 10 μM
T1 construct: expressed in transfected cells; host or cells: Hepa1c1c7 cells (transient transfection, Superfect)
T1 sequence (P37231 1-505): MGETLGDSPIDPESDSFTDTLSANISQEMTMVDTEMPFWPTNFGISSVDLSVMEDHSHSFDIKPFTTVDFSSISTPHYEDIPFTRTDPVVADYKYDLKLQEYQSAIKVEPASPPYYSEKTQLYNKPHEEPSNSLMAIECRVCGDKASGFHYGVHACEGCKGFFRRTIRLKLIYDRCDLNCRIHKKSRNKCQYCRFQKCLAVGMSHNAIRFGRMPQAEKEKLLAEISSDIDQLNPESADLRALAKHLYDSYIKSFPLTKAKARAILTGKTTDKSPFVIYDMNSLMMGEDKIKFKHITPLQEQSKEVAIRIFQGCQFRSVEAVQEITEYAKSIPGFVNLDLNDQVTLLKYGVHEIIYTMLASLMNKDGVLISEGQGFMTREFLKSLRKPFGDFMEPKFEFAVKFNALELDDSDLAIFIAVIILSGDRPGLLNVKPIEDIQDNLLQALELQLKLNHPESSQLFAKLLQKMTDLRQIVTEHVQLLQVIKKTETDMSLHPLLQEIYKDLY
Procedure: (§1) (B) Cell Transactivation Assays
(§2) Assays were performed by transient transfection of Hepa1c1c7 cells in which compounds of the invention were tested for their ability to activate human PPARα, δ and γ isoforms. Cells were co-transfected with either PPARa, d and g expression vectors (containing the entire ORF sequence) and a reporter construct carrying a PPRE linked Lac Z construct. Cells were transfected using Superfect and cultured in T75 flasks overnight, then plated into 96 well plates and left for 5 hours before the addition of test compound. After a further 24 hours PPAR activation was quantitated indirectly as β-Galactosidase activity by hydrolysis of chlorophenol red-β-D-galactopyranoside (CPRG), measured spectrophotometrically at 580 nm. Compounds of the invention were active in this assay.
(§3) According to their activity in transactivation assays and by comparison to the selective PPARγ agonist, BRL 49653; compounds of the invention were categorised as either having pharmacological properties consistent with: selective PPARγ agonists, partial agonists or non-selective PPAR α/γ agonists.

human PPARα = biological target: T2, human PPARα (Homo sapiens, UniProt Q07869); test: as above; conditions: concentration of 10 μM
T2 construct: expressed in transfected cells; host or cells: Hepa1c1c7 cells (transient transfection, Superfect)
T2 sequence (Q07869 1-468): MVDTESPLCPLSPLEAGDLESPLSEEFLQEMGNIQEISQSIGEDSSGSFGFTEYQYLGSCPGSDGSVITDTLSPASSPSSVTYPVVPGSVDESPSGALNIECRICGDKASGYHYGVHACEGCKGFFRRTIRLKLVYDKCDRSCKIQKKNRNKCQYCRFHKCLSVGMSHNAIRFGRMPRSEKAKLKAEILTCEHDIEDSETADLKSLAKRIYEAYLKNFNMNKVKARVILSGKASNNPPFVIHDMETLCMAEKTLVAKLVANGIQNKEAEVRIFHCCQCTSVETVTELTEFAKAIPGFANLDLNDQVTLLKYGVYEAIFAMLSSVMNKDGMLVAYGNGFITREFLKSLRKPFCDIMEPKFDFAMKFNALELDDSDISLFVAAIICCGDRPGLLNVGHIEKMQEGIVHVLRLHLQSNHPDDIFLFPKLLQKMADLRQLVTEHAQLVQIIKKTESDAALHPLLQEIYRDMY
Procedure: as §1, §2, §3

3T3L1 preadipocytes = test: Adipocyte differentiation assay (glycerophosphate dehydrogenase activity); conditions: concentration of 10 μM, 3T3L1 cells, day 7; positive control BRL 49653
Procedure: Adipocyte Differentiation Assay
3T3L1 preadipocytes were grown in DMEM containing 10% NBCS and 1 day post-confluence cells were cultured in differentiation medium (DMEM containing 5% FCS, 1 μg/ml insulin, 0.25 μM dexamethasone and 0.5 mM IBMX) in the presence or absence of compounds. BRL 49653 was used as the positive control and the medium replenished after 3 days. On day 7, cells were lysed and glycerophosphate dehydrogenase activity measured spectrophotometrically at 340 nm.

γ transactivation (human PPARγ): 64%
α transactivation (human PPARα): 25%
SMILES: COc1cc(-c2nnn(Cc3ccccc3C(=O)O)n2)ccc1CN(C)C(=O)COc1ccc(Cl)cc1 [Compound 46]
activity as compared to the control (glycerophosphate dehydrogenase activity) (3T3L1 preadipocytes): 79%
